From article PMC5034429, “Enantioselective cascade biocatalysis for deracemization of 2-hydroxy acids using a three-enzyme system” (Microbial Cell Factories, 2016)

Biological target: T1, (S)-2-HADH from P. aeruginosa NUST (Pseudomonas aeruginosa, UniProt R9RKA7)
T1 construct: synthetic gene in pET28b, E. coli BL21(DE3); resting cells; ~42 kDa on SDS-PAGE; FMN flavoprotein; strain also misprinted NSUT
T1 sequence (R9RKA7 1-393): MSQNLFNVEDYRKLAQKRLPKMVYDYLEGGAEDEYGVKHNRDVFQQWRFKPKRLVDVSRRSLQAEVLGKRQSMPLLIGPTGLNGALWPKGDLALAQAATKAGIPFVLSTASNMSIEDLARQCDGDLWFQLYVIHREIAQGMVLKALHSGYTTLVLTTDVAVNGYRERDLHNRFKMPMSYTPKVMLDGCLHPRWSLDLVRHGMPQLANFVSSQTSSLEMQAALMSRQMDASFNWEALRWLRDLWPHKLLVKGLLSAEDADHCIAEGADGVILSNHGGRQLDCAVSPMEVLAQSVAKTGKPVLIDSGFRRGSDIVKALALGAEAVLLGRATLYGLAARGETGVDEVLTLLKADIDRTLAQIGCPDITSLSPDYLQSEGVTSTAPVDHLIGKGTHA
Test: apoenzyme reactivation
Format: biochemical
Conditions: flavin removal, then addition of FMN

## Cc1cc2nc3c(=O)[nH]c(=O)nc-3n(C[C@H](O)[C@H](O)[C@H](O)COP(=O)(O)O)c2cc1C [FMN]
  apoenzyme reactivation: The activity of the apoenzyme was partly reactivated by the addition of FMN
